In patent US10752635B2, “Indazole compounds and uses thereof” (Incyte Corporation, priority 2018, dated 2020) one finds Ki data, which are given here for 31 compounds.

In general, Ki refers to a measure of affinity in units of concentration, obtained from inhibition or displacement. Low readings indicate higher affinity, high ones lower affinity.

Chain of HPK1 (Q92918 1-346 limits assumed): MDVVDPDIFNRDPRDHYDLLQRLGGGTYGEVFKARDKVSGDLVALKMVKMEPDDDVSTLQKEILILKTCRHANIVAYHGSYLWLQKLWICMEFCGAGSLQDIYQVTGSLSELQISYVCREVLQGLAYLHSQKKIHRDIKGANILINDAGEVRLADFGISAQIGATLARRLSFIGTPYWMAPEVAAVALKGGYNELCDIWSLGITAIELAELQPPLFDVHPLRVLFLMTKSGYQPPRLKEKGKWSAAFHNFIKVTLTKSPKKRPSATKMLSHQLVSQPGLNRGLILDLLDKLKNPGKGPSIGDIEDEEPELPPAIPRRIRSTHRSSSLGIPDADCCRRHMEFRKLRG

For this test, the target named is HPK1 (Homo sapiens (Human), UniProt Q92918). The experiment in a line: HPK1 Kinase Binding Assay. Particulars: active HPK1 (SignalChem M23-11G), tracer 222, LanthaScreen Eu-Anti GST antibody, one hour at 25° C. On the procedure:
A stock solution of 1 mM test compound was prepared in DMSO. The compound plate was prepared by 3-fold and 11-point serial dilutions. 0.1 μL of the compound in DMSO was transferred from the compound plate to the white 384 well polystyrene plates. The assay buffer contained 50 mM HEPES, pH 7.5, 0.01% Tween-20, 5 mM MgCl2, 0.01% BSA, and 5 mM DTT. 5 μL of 4 nM active HPK1 (SignalChem M23-11G) prepared in the buffer was added to the plate. The enzyme concentration given was based on the given stock concentration reported by the vender. […] After one hour incubation at 25° C., the plates were read on a PHERAstar FS plate reader (BMG Labtech). Ki values were determined.
`COCCn1ncc2c(N3C[C@@H](N)C[C@H]3CO)c(NC(=O)c3cccc(-c4c(F)cccc4OC)n3)cc(F)c21` [Example 42, N-(4-((2S,4S)-4-Amino-2-(hydroxymethyl)pyrrolidin-1-yl)-7-fluoro-1-(2-methoxyethyl)-1H-indazol-5-yl)-6-(2-fluoro-6-methoxyphenyl)picolinamide] yielded a Ki of under 100 nM.

For `COc1cccc(F)c1-c1nccc(C(=O)Nc2cc(F)c3c(cnn3CCO)c2N2CC[C@@H](N)C2)n1` [Example 17, (R)—N-(4-(3-Aminopyrrolidin-1-yl)-7-fluoro-1-(2-hydroxyethyl)-1H-indazol-5-yl)-2-(2-fluoro-6-methoxyphenyl)pyrimidine-4-carboxamide], the Ki was under 100 nM.

The compound `COc1cccc(F)c1-c1nccc(C(=O)Nc2cc(F)c3c(cnn3C)c2N2CCC[C@@H]2CN)n1` (single isomer, unassigned; peak 2) [10, Peak 2] yielded a Ki of under 100 nM.

`COCCn1ncc2c(N3C[C@@H](N)C[C@H]3CO)c(NC(=O)c3ccnc(-c4c(F)cc(N)cc4OC)n3)cc(F)c21` [Example 38, N-(4-((2S,4S)-4-Amino-2-(hydroxymethyl)pyrrolidin-1-yl)-7-fluoro-1-(2-methoxyethyl)-1H-indazol-5-yl)-2-(4-amino-2-fluoro-6-methoxyphenyl)pyrimidine-4-carboxamide] returned an inhibition constant Ki of under 100 nM.

For the compound `COc1cccc(F)c1-c1nccc(C(=O)Nc2cc(F)c3nn(C)cc3c2-c2ccccc2C)n1` (single isomer, unassigned; peak 1) [14, Peak 1], the Ki is under 100 nM.

In turn, `CNC(=O)c1cc(NC(=O)c2ccnc(-c3c(F)cccc3OC)n2)c(N2CCC[C@@H](N)C2)c2cnn(C)c12` (single isomer, unassigned; peak 2) [16, Peak 2] returned a Ki of under 100 nM.

The compound `CCNC(=O)N1C[C@@H]2C[C@H]1CN2c1c(NC(=O)c2ccnc(-c3c(F)cccc3OC)n2)cc(F)c2c1cnn2C` [Example 2, (1S,4S)—N-Ethyl-5-(7-fluoro-5-(2-(2-fluoro-6-methoxyphenyl)pyrimidine-4-carboxamido)-1-methyl-1H-indazol-4-yl)-2,5-diazabicyclo[2.2.1]heptane-2-carboxamide] gave a Ki of under 100 nM.

As to `CNC(=O)c1cc(NC(=O)c2ccnc(-c3c(F)cccc3OC)n2)c(N2CCC[C@@H](N)C2)c2cn(C)nc12` (single isomer, unassigned; peak 1) [16, Peak 1], the Ki was 500 to 5000 nM.

`COc1cccc(F)c1-c1nccc(C(=O)Nc2cc(F)c3nn(C)cc3c2N2CCOCC2)n1` [7, Peak 1] returned a Ki of under 100 nM.

With `COc1cccc(F)c1-c1nccc(C(=O)Nc2cc(F)c3c(cnn3CCO)c2N2C[C@@H]3C[C@H]2CN3)n1` [Example 25, N-(4-((1S,4S)-2,5-diazabicyclo[2.2.1]heptan-2-yl)-7-fluoro-1-(2-hydroxyethyl)-1H-indazol-5-yl)-2-(2-fluoro-6-methoxyphenyl)pyrimidine-4-carboxamide], the Ki was under 100 nM.

Compound `COCCn1ncc2c(N3C[C@@H]4C[C@H]3CN4)c(NC(=O)c3ccnc(-c4c(F)cccc4OC)n3)cc(F)c21` [Example 26, N-(4-((1S,4S)-2,5-diazabicyclo[2.2.1]heptan-2-yl)-7-fluoro-1-(2-methoxyethyl)-1H-indazol-5-yl)-2-(2-fluoro-6-methoxyphenyl)pyrimidine-4-carboxamide] registered a Ki of under 100 nM.

`COc1cccc(F)c1-c1nccc(C(=O)Nc2cc(F)c3c(cnn3C)c2N(C)[C@@H]2CCCNC2)n1` [Example 41, (R)—N-(7-Fluoro-1-methyl-4-(methyl(piperidin-3-yl)amino)-1H-indazol-5-yl)-2-(2-fluoro-6-methoxyphenyl)pyrimidine-4-carboxamide] displayed a Ki of under 100 nM.

`COc1cccc(F)c1-c1nccc(C(=O)Nc2cc(F)c3c(cnn3C)c2-c2cccc(CO)c2)n1` [Example 22, N-(7-Fluoro-4-(3-(hydroxymethyl)phenyl)-1-methyl-1H-indazol-5-yl)-2-(2-fluoro-6-methoxyphenyl)pyrimidine-4-carboxamide] came in with a Ki of under 100 nM.

Regarding `COc1cccc(F)c1-c1nccc(C(=O)Nc2ccc3c(c(-c4cnn(C)c4)nn3C)c2N2CCC(N(C)C)CC2)n1` [Example 30, N-(4-(4-(Dimethylamino)piperidin-1-yl)-1-methyl-3-(1-methyl-1H-pyrazol-4-yl)-1H-indazol-5-yl)-2-(2-fluoro-6-methoxyphenyl)pyrimidine-4-carboxamide], the Ki was under 100 nM.

Consider `COc1cccc(F)c1-c1nccc(C(=O)Nc2ccc3c(c(I)nn3C)c2N2CCC(N(C)C)CC2)n1` [Example 27, N-(4-(4-(Dimethylamino)piperidin-1-yl)-3-iodo-1-methyl-1H-indazol-5-yl)-2-(2-fluoro-6-methoxyphenyl)pyrimidine-4-carboxamide], for which the Ki is under 100 nM.

`COc1cccc(F)c1-c1nccc(C(=O)Nc2cc(F)c3c(cnn3CCF)c2N2C[C@@H]3C[C@H]2CN3)n1` [Example 36, N-(4-((1S,4S)-2,5-Diazabicyclo[2.2.1]heptan-2-yl)-7-fluoro-1-(2-fluoroethyl)-1H-indazol-5-yl)-2-(2-fluoro-6-methoxyphenyl)pyrimidine-4-carboxamide] yielded a Ki of under 100 nM.

For `COc1cccc(F)c1-c1nccc(C(=O)Nc2cc(F)c3c(cnn3C)c2-c2cnn(C)c2)n1` [Example 21, N-(7-Fluoro-1-methyl-4-(1-methyl-1H-pyrazol-4-yl)-1H-indazol-5-yl)-2-(2-fluoro-6-methoxyphenyl)pyrimidine-4-carboxamide], the Ki is under 100 nM.

For the compound `COc1cccc(F)c1-c1nccc(C(=O)Nc2cc(F)c3nn(C)cc3c2N2CCC3(CCNC3=O)C2)n1` (single isomer, unassigned; peak 1) [8, Peak 1], the Ki was under 100 nM.

The compound `COc1cccc(F)c1-c1nccc(C(=O)Nc2cc(F)c3c(cnn3C)c2N2CCOCC2)n1` [7, Peak 2] registered a Ki of under 100 nM.

On to `COc1cccc(F)c1-c1nccc(C(=O)Nc2cc(F)c3c(cnn3[C@@H]3CCOC3)c2N2C[C@@H](N)C[C@H]2CO)n1` [Example 32, N-(4-((2S,4S)-4-Amino-2-(hydroxymethyl)pyrrolidin-1-yl)-7-fluoro-1-((R)-tetrahydrofuran-3-yl)-1H-indazol-5-yl)-2-(2-fluoro-6-methoxyphenyl)pyrimidine-4-carboxamide], for which the Ki is under 100 nM.

`COc1cccc(F)c1-c1nccc(C(=O)Nc2cc(F)c3c(cnn3C)c2N2CC(N)C2)n1` [Example 9, N-(4-(3-Aminoazetidin-1-yl)-7-fluoro-1-methyl-1H-indazol-5-yl)-2-(2-fluoro-6-methoxyphenyl)pyrimidine-4-carboxamide] showed a Ki of under 100 nM.

In turn, `COc1cccc(F)c1-c1nccc(C(=O)Nc2ccc3c(c(C)nn3C)c2N2CCC(N(C)C)CC2)n1` [Example 28, N-(4-(4-(Dimethylamino)piperidin-1-yl)-1,3-dimethyl-1H-indazol-5-yl)-2-(2-fluoro-6-methoxyphenyl)pyrimidine-4-carboxamide] yielded a Ki of under 100 nM.

`COc1cccc(F)c1-c1nccc(C(=O)Nc2cc(F)c3nn(C)cc3c2N2CCN[C@@H](CO)C2)n1` [Example 33, (R)—N-(7-Fluoro-4-(3-(hydroxymethyl)piperazin-1-yl)-2-methyl-2H-indazol-5-yl)-2-(2-fluoro-6-methoxyphenyl)pyrimidine-4-carboxamide] yielded a Ki of under 100 nM.

The compound `[2H]C([2H])([2H])Oc1ccc(C)c(F)c1-c1nccc(C(=O)Nc2cc(F)c3c(cnn3CCOC)c2N2C[C@@H](N)C[C@H]2CO)n1` [Example 37, N-(4-((2S,4S)-4-Amino-2-(hydroxymethyl)pyrrolidin-1-yl)-7-fluoro-1-(2-methoxyethyl)-1H-indazol-5-yl)-2-(2-fluoro-6-(methoxy-d3)-3-methylphenyl)pyrimidine-4-carboxamide] returned a Ki of under 100 nM.

`COc1cccc(F)c1-c1nccc(C(=O)Nc2cc(F)c3c(cnn3C)c2C2CCNC2)n1` (stereo not shown) [Example 11, N-(7-Fluoro-1-methyl-4-(pyrrolidin-3-yl)-1H-indazol-5-yl)-2-(2-fluoro-6-methoxyphenyl)pyrimidine-4-carboxamide] gave a Ki of under 100 nM.

Take `COc1cccc(F)c1-c1nccc(C(=O)Nc2cc(C#N)c3c(cnn3C)c2N2CCC[C@@H](N)C2)n1` (single isomer, unassigned; peak 2) [15, Peak 2]: the Ki is under 100 nM.

On to `COc1cccc(F)c1-c1nccc(C(=O)Nc2cc(F)c3nn(C)cc3c2N2C[C@@H](N)C[C@H]2CO)n1` (single isomer, unassigned; peak 1) [3, Peak 1], for which the Ki is under 100 nM.

With `COc1cccc(F)c1-c1nccc(C(=O)Nc2cc(F)c3c(cnn3C)c2N2CCCC2=O)n1` [Example 12, N-(7-Fluoro-1-methyl-4-(2-oxopyrrolidin-1-yl)-1H-indazol-5-yl)-2-(2-fluoro-6-methoxyphenyl)pyrimidine-4-carboxamide], the Ki was under 100 nM.

Turning to `COc1cccc(F)c1-c1nccc(C(=O)Nc2ccc3c(c(-c4ccccc4)nn3C)c2N2CCC(N(C)C)CC2)n1` [Example 29, N-(4-(4-(Dimethylamino)piperidin-1-yl)-1-methyl-3-phenyl-1H-indazol-5-yl)-2-(2-fluoro-6-methoxyphenyl)pyrimidine-4-carboxamide], the Ki fell in the range of 100 to 500 nM.

For `COc1cccc(F)c1-c1nccc(C(=O)Nc2cc(C#N)c3nn(C)cc3c2N2CCC[C@@H](N)C2)n1` (single isomer, unassigned; peak 1) [15, Peak 1], the Ki was under 100 nM.

`COc1cccc(F)c1-c1nccc(C(=O)Nc2cc(F)c3c(cnn3-c3ccncc3C#N)c2N2C[C@@H](N)C[C@H]2CO)n1` [Example 34, N-(4-((2S,4S)-4-Amino-2-(hydroxymethyl)pyrrolidin-1-yl)-1-(3-cyanopyridin-4-yl)-7-fluoro-1H-indazol-5-yl)-2-(2-fluoro-6-methoxyphenyl)pyrimidine-4-carboxamide] yielded a Ki of under 100 nM.
